From patent publication US20230355599A1, “BIOMARKERS FOR CBL, AND COMPOSITIONS AND METHODS FOR THEIR USE” (NURIX THERAPEUTICS, INC., priority 2022, published 2023)

Key:
[1] = test system: phosphorylated PLCγ2; experiment: Phosphorylated PLCγ2 in human CD8+ T cells from whole blood in vitro (flow cytometry); format: cell-based; conditions: T-cell, whole blood from six human donors, 2 hrs 37° C., anti-CD3/anti-CD28 + crosslinker 60 minutes, read-out: Average mean EC50±standard deviation, phosphorylated PLCγ2
Method: To assess these candidate clinical proximal biomarkers of Cbl-b inhibition on T cells, pharmacodynamic analysis was performed. Whole blood was obtained from human donors and incubated with increasing concentrations of Compound 23. The response to Cbl-b inhibition on phosphorylated HS1, PLCγ2, and ZAP70 was measured in CD8^+ T cells using flow cytometry. This technique is highly quantitative and can measure multiple phosphorylation markers in different cell populations within the same sample.
For pharmacodynamic analysis, whole blood was obtained from six human donors (BioIVT) and used for flow cytometry assays to evaluate phosphorylated biomarkers HS1, PLCγ2, and ZAP70 in CD8^+ T cells.
Whole blood was collected in a collection tube coated with sodium heparin. […]
Stained cells were run on an Attune NxT Acoustic Focusing Flow Cytometer (Thermo Fisher, cat. No. A29004), and data was analyzed using FlowJo (v10.6.1) and GraphPad Prism (v8.00) software. Single lymphocytes were gated for CD8^+ cells (CD45^+/CD8^+) cells, and population frequencies were calculated for each population. The data is quantified by the percent positive. […] As protein becomes phosphorylated the fluorescence increases resulting in a larger fraction of the cells entering that gate. Each population was evaluated for % positive pY759-PLCγ2, pY397-HS1 levels, pY319/Syk (Y352)-ZAP70 levels.

[2] = test system: pY180/pY511-ITK; experiment: Phosphoprotein screen in human whole blood with CBL inhibitor at 10 uM: ITK; format: cell-based; conditions: 1 hr 37° C., human whole blood 8 donors, anti-CD3/CD28 + crosslinker 60 minutes
Method: To identify proximal biomarkers of CBL-B inhibition in immune cells, a panel of phosphorylated proteins were screened in human whole blood incubated with CBL-B inhibitor and concomitant anti-CD3 and anti-CD28 antibodies. The effect of CBL-B inhibition was assessed across multiple cellular signaling networks.
Human heparinized whole blood from 8 donors was received after an overnight shipment at 4° C. The blood was plated, treated with CBL inhibitor at 10 uM and incubated at 37° C. for 60 minutes. After incubation, the cells were stimulated with anti-CD3/CD28 followed by a cross-linking antibody (30 μg of goat anti-mouse IgG (H+L) antibody (Invitrogen)). After 60 minutes, the cells were fixed, and stained using surface markers for T cells (CD3^+CD4^+& CD3^+CD8^+) and analyzed by flow cytometry for target phosphorylation of the following markers: pY180/pY511-ITK, pY397-HS1, pY759-PLCg2, pY783-PLCg1, pY525/pY526/pY348-SYK & pY319-Zap70.
Fold change of each biomarker was calculated with the following example equation: […]
Whole blood from eight human donors was collected in sodium heparin anti-coagulant treated with 10 μM of Compound 23 for 1 hr at 37° C. […] Fold change of % phosphorylation normalized to DMSO was quantitated in T cells (CD8^+) using flow cytometry is provided in FIGS. 6A-6B.

C[C@H]1CCCN(Cc2cc3c(c(C(F)(F)F)c2)CN(c2cccc([C@]4(c5nncn5C)C[C@@H](C)C4)c2)C3=O)C1 [Compound 23]
EC50 [1]: 74 ± 4.95 nM
increased phosphorylation of ITK compared to DMSO control [2]: 3-4 fold
